The text below walks through data of ChEMBL document CHEMBL3621060, “Synthesis and anticancer activities of novel 8-azapurine carbocyclic nucleoside hydrazones” (Bioorg Med Chem Lett, 2015).

In one experiment the test system is A549. The experiment is described as follows: Anticancer activity against human A549 cells assessed as inhibition of cell growth at 10 uM incubated for 4 days by CCK8 assay. In kind it is functional. Conditions: A549, 96 h, read-out: GI. On the technique in general: Tetrazolium assays rely on reduction of a dye to a coloured formazan, in cell work by metabolically active cells.

Experiment [1] can be described thus: Anticancer activity against human HuH7 cells assessed as inhibition of cell growth at 10 uM incubated for 4 days by CCK8 assay. Format: functional. Conditions: Huh-7, 96 h, read-out: GI.
Experiment [2] in a line: Anticancer activity against human HuH7 cells assessed as inhibition of cell growth incubated for 4 days by CCK8 assay. Format: functional, cell-based. Conditions: Huh-7, 96 h.
The test system of another experiment is P388. The experiment in a line: Cytotoxicity against mouse P388 cells. Conditions: read-out: ED50 (the source's name). In kind it is functional.

For `CCCSc1nc(N/N=C/c2ccccc2)c2nnn([C@@H]3C[C@H](O)[C@@H](O)[C@H]3O)c2n1`, the inhibition of growth at 10 µM turned out to be 22.9% in the experiment with A549 and 20.1% in experiment [1].

`CCCSc1nc(N/N=C/c2ccc(F)c(F)c2)c2nnn([C@@H]3C[C@H](O)[C@@H](O)[C@H]3O)c2n1`: the inhibition of growth at 10 µM with A549 came out at 26.9%; in experiment [1], 31.5%.

Turning to `CCCSc1nc(N/N=C/c2ccccc2O)c2nnn([C@@H]3C[C@H](O)[C@@H](O)[C@H]3O)c2n1`, the figures for the inhibition of growth at 10 µM (in the experiment on A549; in experiment [1]) were 24.3% and 34.5%, respectively.

Turning to `CCCSc1nc(N/N=C/c2cccc(O)c2)c2nnn([C@@H]3C[C@H](O)[C@@H](O)[C@H]3O)c2n1`, the inhibition of growth at 10 µM was determined as 21.4% with A549 and 36.5% in experiment [1].

For `CCCSc1nc(N/N=C/c2ccc(O)cc2)c2nnn([C@@H]3C[C@H](O)[C@@H](O)[C@H]3O)c2n1`, the inhibition of growth at 10 µM stood at 32.3% in the experiment on A549 and 43.8% in experiment [1].

On to `CCCSc1nc(N/N=C/c2ccc(O)cc2O)c2nnn([C@@H]3C[C@H](O)[C@@H](O)[C@H]3O)c2n1`, for which the results for the inhibition of growth at 10 µM (with A549; in experiment [1]) were 33% and 38.3%, respectively.

For `CCCSc1nc(N/N=C/c2ccccc2OC)c2nnn([C@@H]3C[C@H](O)[C@@H](O)[C@H]3O)c2n1`, the figures for the inhibition of growth at 10 µM (in the experiment with A549; in experiment [1]) were 31.6% and 43.8%, respectively.

As for `CCCSc1nc(N/N=C/c2ccc(OC)cc2)c2nnn([C@@H]3C[C@H](O)[C@@H](O)[C@H]3O)c2n1`, the figures for the inhibition of growth at 10 µM (in the experiment on A549; in experiment [1]) were 69.2% and 57.3%, respectively.

On to `CCCSc1nc(N/N=C/c2ccc(OC)c(OC)c2)c2nnn([C@@H]3C[C@H](O)[C@@H](O)[C@H]3O)c2n1`, for which the inhibition of growth at 10 µM was 28.9% in the experiment on A549 and 26.9% in experiment [1].

In the case of `CCCSc1nc(N/N=C/c2ccccc2Cl)c2nnn([C@@H]3C[C@H](O)[C@@H](O)[C@H]3O)c2n1`, the inhibition of growth at 10 µM in the experiment with A549 amounted to 30.5%; in experiment [1], 37.7%.

Take `CCCSc1nc(N/N=C/c2ccc(Cl)cc2)c2nnn([C@@H]3C[C@H](O)[C@@H](O)[C@H]3O)c2n1`: the inhibition of growth at 10 µM with A549 is 34.2%; in experiment [1], 47.8%.

For `CCCSc1nc(N/N=C/c2ccc(Cl)cc2Cl)c2nnn([C@@H]3C[C@H](O)[C@@H](O)[C@H]3O)c2n1`, the inhibition of growth at 10 µM in the experiment on A549 worked out at 41.6%; in experiment [1], 51.2%.

In the case of `CCCSc1nc(N/N=C/c2cccc([N+](=O)[O-])c2)c2nnn([C@@H]3C[C@H](O)[C@@H](O)[C@H]3O)c2n1`, the inhibition of growth at 10 µM in the experiment on A549 worked out at 68%; in experiment [1] it was 58.5%.

As for `CCCSc1nc(N/N=C/c2ccc([N+](=O)[O-])cc2)c2nnn([C@@H]3C[C@H](O)[C@@H](O)[C@H]3O)c2n1`, in experiment [2], the IC50 (as a rule, the concentration at which inhibition is half-maximal) turned out to be 11.7 µM. In addition, the inhibition of growth at 10 µM was found to be 67.6% with A549 and 68% in experiment [1].

Turning to `CCCSc1nc(N/N=C/c2ccccn2)c2nnn([C@@H]3C[C@H](O)[C@@H](O)[C@H]3O)c2n1`, the figures for the inhibition of growth at 10 µM (in the experiment on A549; in experiment [1]) were 38.6% and 52.5%, respectively.

With `CCCSc1nc(N/N=C/c2cccs2)c2nnn([C@@H]3C[C@H](O)[C@@H](O)[C@H]3O)c2n1`, the inhibition of growth at 10 µM with A549 is 38.8%; in experiment [1] it was 50%.

In the case of `Nc1ncnc2c1nnn2[C@@H]1C[C@H](CO)[C@H](O)[C@H]1O`, the EC50 with P388 stood at 0.38 µM.

With `O=c1[nH]cc(F)c(=O)[nH]1` [FLUOROURACIL], the inhibition of growth at 10 µM came to 64.5% with A549 and 78.7% in experiment [1].
